Laboratory results: PMC8156934, “Photophysical Study and Biological Applications of Synthetic Chalcone-Based Fluorescent Dyes” (Molecules, 2021)
In brackets after ≈: the same amount, converted by molar mass. Read-outs that look alike come from different tables or passages of the source.

Legend:
E. coli 780 = experiment: Antibacterial activity test (MIC, MBC, growth curve); assay type: cell-based, Escherichia coli; settings: for MBC / MIC: Escherichia coli
Method: (§1) All bacteria strains were obtained from the Thailand Institute of Scientific and Technological Research (TISTR). The antibacterial activity of chalcones 3a–f was determined by the minimal inhibitory concentration (MIC) and the minimal bactericidal concentration (MBC) against the Gram-positive (S. aureus 1466, TISTR 1466) and Gram-negative (E.coli 780, TISTR 780) bacteria. The stocks of chalcones 3a–f (0.60 mg/mL) were serially diluted in Muller–Hinton (MH) broth to obtain concentrations in the range of 250–1000 µM. The solutions of chalcones 3a–f (100 µL) at different concentrations were added in the culture of the tested bacteria (100 µL) at a concentration of 1 × 10^6 colony-forming units/mL (CFU/mL) in MH broth at 37 °C with shaking at 80 rpm. The bacterial numbers were determined by measuring the optical density at 600 nm by a UV–Vis spectrometer. […] To determine the MBC values, the bacterial cultures (10 µL) containing the solutions of chalcones 3a–f at MIC and three higher concentrations were dropped on MH agar plates.

[1] = pH effect on fluorescence emission; assay type: physicochemical; settings: 3% Tween 80
Method: Chalcones 3a–f (2 µM) were dissolved in commercial pH 1–12 buffers purchased from Merck (St. Louis, MO, USA) (glycine/NaCl/HCl for pH 1, citric acid/NaOH/HCl for pH 2–6, Na2HPO4/KH2PO4 for pH 7, boric acid/ KCl/NaOH for pH 8–11, Na3PO4/NaOH for pH 12) in the presence of Tween 80 (3% w/w). The actual pH values of the final buffer solutions were measured by a pH meter. The resulting solutions were examined by a Spectrofluorometer (PerkinElmer LS55) at the maximum absorbance wavelength of each compound.

HEK-293 = experiment: Cell viability MTT assay, normal cells; assay type: cell-based; settings: Homo sapiens
Method: (§2) For fluorescence imaging of living cells, human embryonic kidney 293 (HEK-293, ATCC) and human hepatoma cancer cell (HepG2, ATCC) were cultured in Dulbecco′s Modified Eagle′s Medium (DMEM, HyClone) supplemented with 10% Fetal Bovine Serum (FBS, Gibco, Carlsbad, CA, USA) and 1% Penicillin/Streptomycin Solution 100X (Corning, Corning, NY, USA). All cells were cultured in a humidified incubator at 37 °C with 5% CO2. HEK-293 and HepG2 cells, approximately 1 × 10^4 cells, were seeded on 8-well chambered cover glasses (LabTek, Nunc, Carlsbad, CA, USA) and incubated in complete medium for 24 h. After that, the cells were treated with 5 μM stock solutions of 3a–f in DMSO/cell culture medium containing 10% FBS (0.25% DMSO), for 0, 1, 3, and 6 h. Then, the cells were washed twice with 0.01 M PBS before being visualized under a Laser-Scanning Confocal Microscope (Nikon A1Rsi) with a 60× oil immersion objective lens and living cell workstation with the excitation channel at 488 nm.
(§3) The cells were seeded on a 96-well plate, approximately 7 × 10^3 cells per well, and incubated in complete medium for 24 h. After that, the cells were treated with 0, 1, 5, 10, 20, and 50 μM of chalcones 3a–f, and culturing continued for 24 h. After incubation, the cells were washed three times with 10 mM PBS and treated with […] of methylthiazolyldiphenyl-tetrazolium bromide (MTT reagent, 0.5 mg mL^−1, Sigma-Aldrich, St. Louis, MO, USA) for 2–3 h. After medium removal, DMSO was added to dissolve the formazan product, and cell viability was determined by UV–Vis absorption of the resulting formazan at a wavelength of 560 nm in a microplate reader (BMG Labtech/SPECTROstar Nano, Ortenberg, Germany).

S. aureus 1466 = experiment: Antibacterial activity test (MIC, MBC, growth curve); assay type: cell-based, Staphylococcus aureus; settings: for MBC / MIC: Staphylococcus aureus
Method: as §1

[2] = Photophysical properties (UV–Vis absorption and fluorescence spectra); assay type: physicochemical; settings: for λabs absorption maximum wavelength / ∆λ stokes shifts (λem − λabs) / λem emission maximum wavelength / Φf fluorescence quantum yields: 2 µM; for λem emission maximum wavelength: excited at the maximum absorption wavelength; for Φf fluorescence quantum yields: n = 3, relative to fluorescein in 0.1 M NaOH
Method: All UV–Vis absorption and fluorescence spectra were recorded on a UV–Vis Spectrophotometer (Agilent Technologies Cary 300, Santa Clara, CA, USA) and a Spectrofluorometer (PerkinElmer LS55, Waltham, MA, USA), respectively. In both experiments, the stock solutions of chalcones 3a–f were prepared as 0.5 mM in DMSO. The appropriate amount of the stock solution was added to DMSO, MeOH, and 0.01 M PBS buffer (pH 7.4) with 3% Tween 80 (3 mL) to obtain the final concentration of 2 µM in the testing solutions. For fluorescence experiments, the emission spectra were recorded at the maximum absorbance wavelength of each compound. The fluorescent quantum yields (Φf) were calculated relative to fluorescein in 0.1 M NaOH as a standard (Φf = 0.95).

[3] = Photo-stability test (photobleaching under 250 W blue light); assay type: physicochemical; settings: DMSO, 250 W blue light (380–500 nm), after 30 min irradiation
Method: Chalcones 3a–f were dissolved in DMSO at the final concentration of 1 × 10^−6 M for measuring absorption and emission intensity. Then, 3a–f were irradiated at 250 W (blue-lamp) at a distance of 75 cm. The UV–Visible absorption and fluorescence spectra of the solutions were measured at different time points including 0, 1, 5, 10, 15, 20, and 30 min. Photo-stability was reported in terms of photobleaching absorption and emission (%) calculated from the change of absorption and emission intensity at the absorption and emission maxima before and after irradiation.

HepG2 = experiment: Cell viability MTT assay, cancer cells; assay type: cell-based; settings: Homo sapiens, HepG2, 24 h
Method: as §2, §3

[4] = E. coli 780, mean ± SD of three independent experiments, read-out: MBC
[5] = E. coli 780, mean ± SD of three independent experiments, read-out: MIC
[6] = HEK293, HEK-293, 24 h, MTT, read-out: IC50
[7] = S. aureus 1466, mean ± SD of three independent experiments, read-out: MBC
[8] = S. aureus 1466, mean ± SD of three independent experiments, read-out: MIC

| SMILES | MIC (E. coli 780; [5]) | fluorescence emission ([1]; pH range from 2 to 12, 2 µM) | ε molar absorptivity ([2]; DMSO) | λabs absorption maximum wavelength ([2]; DMSO) | ∆λ stokes shifts (λem − λabs) ([2]; DMSO) | λem emission maximum wavelength ([2]; DMSO) | Φf fluorescence quantum yields ([2]; DMSO) | ε molar absorptivity ([2]; MeOH) | λabs absorption maximum wavelength ([2]; MeOH) | ∆λ stokes shifts (λem − λabs) ([2]; MeOH) | λem emission maximum wavelength ([2]; MeOH) | Φf fluorescence quantum yields ([2]; MeOH) | ε molar absorptivity ([2]; PBS (3%w/w tween 80)) | λabs absorption maximum wavelength ([2]; PBS (3%w/w tween 80)) | ∆λ stokes shifts (λem − λabs) ([2]; PBS (3%w/w tween 80)) | λem emission maximum wavelength ([2]; PBS (3%w/w tween 80)) | Φf fluorescence quantum yields ([2]; PBS (3%w/w tween 80)) | % photobleaching of absorbance [3] | % photobleaching of fluorescence [3] | MBC (E. coli 780; [4]) | other results |
| --- | --- | --- | --- | --- | --- | --- | --- | --- | --- | --- | --- | --- | --- | --- | --- | --- | --- | --- | --- | --- | --- |
| COc1ccc(C(=O)/C=C/c2ccc(N(C)C)cc2)cc1 [3a] | 375 ± 0.01 µM (≈ 106 µg/mL) | Higher emission peaks | 46000 M⁻¹ cm⁻¹ | 417 nm | 115 nm | 532 nm | 0.69 ± 0.04 | 30000 M⁻¹ cm⁻¹ | 417 nm | 132 nm | 549 nm | 0.013 ± 0.006 | 33000 M⁻¹ cm⁻¹ | 416 nm | 113 nm | 529 nm | 0.15 ± 0.02 | 50% | 25% | 750 ± 0.02 µM (≈ 211 µg/mL) | IC50 (HEK-293; [6]): > 100 µM; MBC (S. aureus 1466; [7]): 1000 ± 0.09 µM (≈ 281 µg/mL); MIC (S. aureus 1466; [8]): 375 ± 0.03 µM (≈ 106 µg/mL) |
| CN(C)c1ccc(/C=C/C(=O)c2ccc(O)cc2)cc1 [3c] |  |  | 10000 M⁻¹ cm⁻¹ | 413 nm | 107 nm | 520 nm | 0.61 ± 0.04 | 10000 M⁻¹ cm⁻¹ | 414 nm | 132 nm | 546 nm | 0.017 ± 0.011 | 13000 M⁻¹ cm⁻¹ | 411 nm | 115 nm | 526 nm | 0.11 ± 0.02 | 37% | 50% |  | IC50 (HepG2): 100 µM; MBC (E. coli 780; 780): 750 ± 0.01 µM (≈ 200 µg/mL); MIC (E. coli 780; 780): 250 ± 0.01 µM (≈ 66.8 µg/mL); fluorescence emission ([1]; basic conditions (pH 9–12), 2 µM): reduced emission signals; IC50 (HEK-293; HEK293, 24 h): > 100 µM; MBC (S. aureus 1466; 1466): 1000 ± 0.01 µM (≈ 267 µg/mL); MIC (S. aureus 1466; 1466): 375 ± 0.01 µM (≈ 100 µg/mL) |
| Cc1ccc(C(=O)/C=C/c2ccc(N(C)C)cc2)cc1 [3e] | 375 ± 0.01 µM (≈ 99.5 µg/mL) | Higher emission peaks | 32000 M⁻¹ cm⁻¹ | 420 nm | 119 nm | 539 nm | 0.50 ± 0.02 | 32000 M⁻¹ cm⁻¹ | 417 nm | 130 nm | 547 nm | 0.012 ± 0.007 | 28000 M⁻¹ cm⁻¹ | 420 nm | 101 nm | 521 nm | 0.18 ± 0.03 | 46% | 21% | 1000 ± 0.02 µM (≈ 265 µg/mL) | IC50 (HepG2; MTT, read-out: IC50): 54 µM; IC50 (HEK-293; [6]): 96 µM; MBC (S. aureus 1466; [7]): 1000 ± 0.02 µM (≈ 265 µg/mL); MIC (S. aureus 1466; [8]): 375 ± 0.03 µM (≈ 99.5 µg/mL) |

Second part, led by results:

| MIC (E. coli 780; [5]) | fluorescence emission ([1]; pH range from 2 to 12, 2 µM) | ε molar absorptivity ([2]; DMSO) | λabs absorption maximum wavelength ([2]; DMSO) | ∆λ stokes shifts (λem − λabs) ([2]; DMSO) | λem emission maximum wavelength ([2]; DMSO) | Φf fluorescence quantum yields ([2]; DMSO) | ε molar absorptivity ([2]; MeOH) | λabs absorption maximum wavelength ([2]; MeOH) | ∆λ stokes shifts (λem − λabs) ([2]; MeOH) | λem emission maximum wavelength ([2]; MeOH) | Φf fluorescence quantum yields ([2]; MeOH) | ε molar absorptivity ([2]; PBS (3%w/w tween 80)) | λabs absorption maximum wavelength ([2]; PBS (3%w/w tween 80)) | ∆λ stokes shifts (λem − λabs) ([2]; PBS (3%w/w tween 80)) | λem emission maximum wavelength ([2]; PBS (3%w/w tween 80)) | Φf fluorescence quantum yields ([2]; PBS (3%w/w tween 80)) | % photobleaching of absorbance [3] | % photobleaching of fluorescence [3] | SMILES | MBC (E. coli 780; [4]) | other results |
| --- | --- | --- | --- | --- | --- | --- | --- | --- | --- | --- | --- | --- | --- | --- | --- | --- | --- | --- | --- | --- | --- |
| 250 ± 0.02 µM (≈ 64.3 µg/mL) | Higher emission peaks | 31000 M⁻¹ cm⁻¹ | 431 nm | 129 nm | 560 nm | 0.34 ± 0.04 | 29000 M⁻¹ cm⁻¹ | 428 nm | 139 nm | 567 nm | 0.012 ± 0.007 | 37000 M⁻¹ cm⁻¹ | 427 nm | 93 nm | 520 nm | 0.11 ± 0.02 | 26% | 43% | CN(C)c1ccc(/C=C/C(=O)c2cccs2)cc1 [3b] | 750 ± 0.02 µM (≈ 193 µg/mL) | IC50 (HepG2; MTT, read-out: IC50): 45 µM; IC50 (HEK-293; [6]): > 100 µM; MBC (S. aureus 1466; [7]): 1000 ± 0.01 µM (≈ 257 µg/mL); MIC (S. aureus 1466; [8]): 375 ± 0.01 µM (≈ 96.5 µg/mL) |
| 250 ± 0.01 µM (≈ 73.6 µg/mL) | Higher emission peaks | 46000 M⁻¹ cm⁻¹ | 422 nm | 94 nm | 516 nm | 0.10 ± 0.02 | 37000 M⁻¹ cm⁻¹ | 423 nm | 132 nm | 555 nm | 0.024 ± 0.015 | 44000 M⁻¹ cm⁻¹ | 422 nm | 120 nm | 542 nm | 0.17 ± 0.03 | 51% | 30% | CN(C)c1ccc(/C=C/C(=O)c2ccc(N(C)C)cc2)cc1 [3d] | 375 ± 0.01 µM (≈ 110 µg/mL) | IC50 (HepG2; MTT, read-out: IC50): 56 µM; bacterial growth (OD600 growth curve) (E. coli 780; E. coli 780, increasing concentration, 24 h): significantly inhibited; IC50 (HEK-293; [6]): > 100 µM; bacterial growth (OD600 growth curve) (S. aureus 1466; S. aureus 1466, increasing concentration, 24 h): significantly inhibited; MBC (S. aureus 1466; [7]): 1000 ± 0.01 µM (≈ 294 µg/mL); MIC (S. aureus 1466; [8]): 250 ± 0.01 µM (≈ 73.6 µg/mL) |
